Reference: publication PMC8508526 (Cancers, 2021)
Positions of bridges follow the written chain, without caps; N, C: chain ends. No end group written: not given here.

Experiments:
[1] = tested on: A2780 human ovarian carcinoma cells; details: A2780 model, 10 mg/kg i.p. thrice a week for 2 weeks
Method: (§1) Suspensions of A2780 or SK-OV-3 human ovarian carcinoma cells were s.c. inoculated (5 × 10^6 cells in 200 µL per animal) into the left flank of BALB/c athymic nude mice. Tumor measurements (length, L; width, W) were performed twice a week, using a digital caliper, and total tumor volume was calculated according to V = 0.5 × L × W^2. For randomization, mice were allocated to groups (n = 13–16 in each) based on similar mean and distribution of tumor volume on day 13. […] Body weight (BW) was monitored every 2 to 3 days, while clinical signs and behavior pattern were daily checked until study termination. Loss of 15% BW or tumor volume exceeding 1 cm^3 were considered an indication for euthanasia, as well as severe tumor necrosis, as it was sometimes associated with loss of body fluid and/or infection.

[2] = tested on: SK-OV-3 human ovarian carcinoma cells; details: SK-OV-3 model, 10 mg/kg i.p. thrice a week for 7 weeks
Method: as §1

[3] = 0.25 to 20 mg/mL in MilliQ water, 0.9% NaCl or 0.9% NaCl with 15 mM Tris; from lyophilized powder; A205, path length 0.05 cm, compared to powder weighing
Method: Absorbance values at 205 nm were measured on a NanoVue Plus^TM spectrophotometer (GE Healthcare, Chicago, IL, USA) using a quartz cuvette with a 0.05 cm path length.

[4] = freshly collected EDTA plasma from Sprague Dawley rats, 500 µL, spiked at 50 ng/mL, 2 h at 4 °C or room temperature, sampled every 30 min, HPLC-MS/MS, n = 2 per condition (method b35: 1 µM, 37 °C, human plasma)
platelets = test: Washed platelets flow cytometry analysis of activation (CD62P); format: cell-based, mouse; details: washed platelets pooled from 4 treated ID8 tumor-bearing mice per group; resting and 3.33 U/mL thrombin; CD62P exposure
Method: Washed platelets were freshly prepared as described elsewhere from a pool of 4 mouse blood samples by treatment group (ID8 allograft i.p. model). […] To promote activation, platelets were incubated with 3.33 U.mL^−1 thrombin (#D8537, Sigma-Aldrich) for 5 min, at room temperature. Platelets were probed with both a (FITC)-conjugated monoclonal anti-CD41 antibody (clone MWReg30; #553848, BD Pharmingen) and a (PE)-conjugated monoclonal anti-CD62P antibody (clone Wug.E9; #M130-2, Emfret Analytics) for 10 min, at room temperature, in the dark. IgG1-PE (clone R3-34; #P190_2, Emfret Analytics) and IgG1-FITC (clone R3-34; #553924, BD Pharmingen) were employed as isotype controls. Platelet isolation was performed by gating in forward and side scatter, as well as relying on CD41 positivity, while CD62P (P-selectin) membrane exposure reflects platelet activation.
Figure S2. […] 8 weeks old female and
(a) Photographs of spleen isolated on
Whitney U test statistical analyses (* p < 0.05).
mice having received chronic TAX2 or combination therapy. Upon sacrifice, blood was collected from
samples by treatment group.
investigated by flow cytometry. Platelet population was isolated based on anti‐CD41 positivity,
Activation was analyzed on […]

[5] = molecular target: T1, recombinant mouse thrombospondin-1 with a C-terminal 6His tag (mouse, UniProt P35441 19-1170); test: SPR; Biacore T200; rmTSP-1 captured by its C-terminal 6His tag on anti-histidine antibody amine-coupled to a CM5 chip (2931 RU); peptides injected for 120 s at 30 uL/min, 25 °C; running buffer 10 mM HEPES, 0.15 M NaCl, 0.05% surfactant P20, 5 mM CaCl2, pH 7.4; single injections at 1 mM; single-cycle kinetics at 15.625-250 uM; contact-time experiment (30-600 s) at 500 uM TAX2; two-state reaction model, apparent KD; details: both partners purified
T1 construct: thrombospondin-1 (TSP-1), mouse, recombinant; also called rmTSP-1; TSP-1; source: bought: R&D Systems (#7859-TH); not shown: 6His, C-terminal, kept
T1 sequence (P35441 19-1170): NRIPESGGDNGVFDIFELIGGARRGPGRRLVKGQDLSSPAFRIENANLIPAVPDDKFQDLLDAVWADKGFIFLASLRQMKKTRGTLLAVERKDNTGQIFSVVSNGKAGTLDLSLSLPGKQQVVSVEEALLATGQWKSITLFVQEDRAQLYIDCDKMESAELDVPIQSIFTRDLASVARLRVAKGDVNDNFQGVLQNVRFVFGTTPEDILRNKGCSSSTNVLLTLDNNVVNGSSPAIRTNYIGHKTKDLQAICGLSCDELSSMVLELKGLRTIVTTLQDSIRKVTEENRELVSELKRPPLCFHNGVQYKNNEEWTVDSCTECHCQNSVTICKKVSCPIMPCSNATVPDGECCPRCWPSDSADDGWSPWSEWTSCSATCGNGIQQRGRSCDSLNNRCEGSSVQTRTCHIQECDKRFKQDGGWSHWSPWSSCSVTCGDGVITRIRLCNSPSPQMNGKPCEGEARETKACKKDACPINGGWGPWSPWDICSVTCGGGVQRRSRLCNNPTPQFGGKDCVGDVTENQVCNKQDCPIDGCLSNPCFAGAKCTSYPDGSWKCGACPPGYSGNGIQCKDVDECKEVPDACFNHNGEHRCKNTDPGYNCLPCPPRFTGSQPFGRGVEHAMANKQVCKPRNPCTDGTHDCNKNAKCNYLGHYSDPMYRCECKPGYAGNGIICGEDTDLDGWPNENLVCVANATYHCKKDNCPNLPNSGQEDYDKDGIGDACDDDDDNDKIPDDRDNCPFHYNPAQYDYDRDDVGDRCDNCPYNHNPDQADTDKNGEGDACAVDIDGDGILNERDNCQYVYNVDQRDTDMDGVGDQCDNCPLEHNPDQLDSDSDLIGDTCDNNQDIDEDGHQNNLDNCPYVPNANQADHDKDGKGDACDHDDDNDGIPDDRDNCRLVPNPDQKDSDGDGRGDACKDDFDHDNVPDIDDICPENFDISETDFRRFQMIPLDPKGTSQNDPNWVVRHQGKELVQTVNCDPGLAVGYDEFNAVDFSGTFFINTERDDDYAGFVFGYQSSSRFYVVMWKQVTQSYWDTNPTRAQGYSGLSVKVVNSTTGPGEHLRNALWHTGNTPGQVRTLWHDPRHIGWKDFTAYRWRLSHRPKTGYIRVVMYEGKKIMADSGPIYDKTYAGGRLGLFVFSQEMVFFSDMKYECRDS

In the case of CC(C)C[C@@H]1NC(=O)[C@H](CC(C)C)NC(=O)[C@H](CCC(N)=O)NC(=O)[C@H](CO)NC(=O)[C@H](C(C)C)NC(=O)[C@H](CCC(=O)O)NC(=O)[C@@H](N)CSSC[C@@H](C(=O)O)NC(=O)[C@H](C)NC(=O)[C@H](CC(=O)O)NC(=O)CNC(=O)[C@H](CCCCN)NC1=O [TAX2], the “safety (body weight, clinical signs)” value [1] is reported as “appeared to be safe”, the “safety (body weight, clinical signs)” value [2] is reported as “appeared to be safe” and the “solubility in aqueous solvents” value [3] is reported as “completely soluble”. For the same molecule, the “stability in plasma (remaining TAX2, % of concentration at T0)” value [4] was “remains stable in freshly collected plasma up to 2 hours” and the “impact on platelet ability to activate” value (platelets) was “Neither TAX2 monotherapy nor combined to anti-PD-1 mAb had any impact”.

B1: TAX2 cyclic peptide (peptide)
peptide: CEVSQLLKGDAC
modifications: disulfide 1-12 (inferred); also: acetate salt
notes: disulfide linked 12 amino-acid cyclic peptide stretch of CD47; The two end residues are replaced by cysteines to close the ring; also called TAX2 peptide; TAX2 drug candidate; source: synthetic peptide (solid-phase synthesis, Fmoc chemistry; Genecust), purity >98%
B1: binds [5].
